One assay deals with RNA polymerase III. As to the kind of experiment: IFN-β mRNA in RAW264.7 cells after P. yoelii YM gDNA stimulation, with RNA polymerase III knockdown or inhibition. The assay is classed as cell-based. To be noted: siRNA 48 h or ML60218 pretreatment 24 h, then P. yoelii YM gDNA stimulation 6 h. An excerpt: FIGS. 10A to 10G show type I IFN gene expression after P. yoelii YM gDNA or RNA stimulation and WT mice serum cytokine level after P. yoelii YM infection. […] Data are plotted as the mean±s.d. and are representative of three independent experiments. *P<0.05, **P<0.01, ***P<0.001 vs. corresponding control. ND, not detected; NS, not significant.
To understand the molecular mechanisms by which mice deficient in the cGAS, Sting, Mda5, or Mavs gene were resistant to P. yoelii YM infection, experiments were conducted to determine whether cGAS and MDA5 function as DNA/RNA sensors for detecting P. yoelii YM gDNAs or RNAs (FIG. 2a). Both purified P. yoelii YM gDNA and RNA could induce IFN-β mRNA expression in RAW264.7 cells (FIG. 2b). The ability of P. yoelii YM gDNA to induce type I IFN response was completely abolished upon DNase, but not RNase, treatment (FIG. 10a). Similarly, the stimulating activity of parasite RNA was abolished after treatment with RNase, but not DNase (FIG. 10a), which is in agreement with other studies showing that malaria RNA can be detected by MDA5 sensor (Liehl, P. et al. Nat Med 20:47-53 (2014); Wu, J. et al. Proc Natl Acad Sci USA 111:E511-520 (2014)). […]

For assay [1], the system named is P. yoelii YM. As to the kind of experiment: Serum cytokine levels (ELISA) in mice after P. yoelii YM infection. The assay is classed as in vivo, mouse. How it is done:
(§1) The parasite Plasmodium yoelii YM, N67C and N67 have been previously described (Li, J. et al. Proc Natl Acad Sci USA 108:E374-382 (2011)). For plasmodium infection, 0.2 (low) or 2×10^6 iRBCs (otherwise, indicated specifically in the figure legend) suspended in 200 μl PBS from the donor mice were intraperitoneally injected into experimental mice. A higher parasite dose (1×10^7 iRBCs) was used in some experiments. Parasitemias were monitored daily by examination of Giemsa-stained thin tail blood smears. Female mice C57BL/6 (WT), Mavs^−/−, Mda5^−/−, Myd88^−/−, Sting^−/−, Trif^−/−, BDCA2-DTR, Tlr2^−/−, Tlr3^−/−, and Tlr4^−/− mice were purchased from The Jackson Laboratory. Tlr9^−/− mice, Tlr7^−/−, Rig-I^−/− mice, Irf3^−/−:Irf7^−/− mice, and cGAS^−/− mice were obtained. All mouse-related procedures were performed according to experimental protocols approved by the Animal Care and Welfare Committee at Houston Methodist Research Institute and in accordance with NIH-approved animal study protocol LMVR-11E.
(§2) To deplete pDCs, pDC-depleting functional-grade mAb (anti-mPDCA-1 IgG, clone JF05-1C2.4.1) and the corresponding isotype control IgG, which served as control, were purchased from Miltenyi Biotec (Auburn, Calif.). Two intraperitoneal injections of antibody (250 μg/mouse) per mouse were administered 12 h prior and after YM infection.
Mouse splenocytes were prepared from spleens cut into small fragments and digested with collagenase D (1 mg/ml, Sigma) and DNAse I (20 μg/ml, Sigma) in RPMI-1640 medium for 30 min. […] Cells were analyzed using the BD FACS Aria II. […]
In Vivo Ready siRNAs were mixed with Invivofectamine 3.0 liposomes (Invitrogen) following the manufacturer's instructions and injected intravenously in a volume of 100 μl at a dose of 5 mg/kg. […]
The parasite Plasmodium yoelii YM and Plasmodium yoelii N67C have been previously described (Wu, J. et al. Proc Natl Acad Sci USA 111:E511-520 (2014); Li, J. et al. Proc Natl Acad Sci USA 108:E374-382 (2011)). […] Parasitemias were monitored daily by examination of Giemsa-stained thin tail blood smears. […]

In assay [2] the test system is P. yoelii YM. Briefly: Daily parasitemia and mortality of mice after P. yoelii YM infection. The format is in vivo, mouse. How it is done:
as §1, §2
In Vivo Ready siRNAs were mixed with Invivofectamine 3.0 liposomes (Invitrogen) following the manufacturer's instructions and injected intravenously in a volume of 100 μl at a dose of 5 mg/kg. Mice were infected with P. yoelii YM (0.5×10^6 iRBCs) 48 h after siRNA treatment.
Deficient (Mda5^−/−, Mavs^−/−, and Sting^−/−) mice were crossed with BDCA2-DTR transgenic mice and treated with diphtheria toxin (DT, Sigma-Aldrich) intraperitoneally (i.p.) at a dose of 100-120 ng/mouse. pDCs were depleted by DT injection at 1 day before and 1, 3, and 5 days after P. yoelii YM infection.
The parasite Plasmodium yoelii YM and Plasmodium yoelii N67C have been previously described (Wu, J. et al. Proc Natl Acad Sci USA 111:E511-520 (2014); Li, J. et al. Proc Natl Acad Sci USA 108:E374-382 (2011)). For plasmodium infection, 0.2 (low) or 2×10^6 iRBCs (otherwise, indicated specifically in the figure legend) suspended in 200 μl PBS from the donor mice were intraperitoneally injected into experimental mice. Parasitemias were monitored daily by examination of Giemsa-stained thin tail blood smears. Female mice C57BL/6 (WT), Mavs^−/−, Mda5^−/−, Sting^−/−, BDCA2-DTR, zDC-DTR, Ifnar^−/−, and Rag2^−/− mice were purchased from The Jackson Laboratory. All mouse-related procedures were performed according to experimental protocols approved by the Animal Care and Welfare Committee at Houston Methodist Research Institute and in accordance with NIH-approved animal study protocol LMVR-11E.
To block type I IFN receptor, anti-mouse interferon α/β receptor antibodies (Leinco Technologies), in the amount of 500 μg in PBS at day 0, 2, 4, and 250 μg at day 6 after infection (or indicated specifically in the figure legend), were intraperitoneally injected into WT and deficient mice. Mouse IgG antibody was used as control, and parasitemias were monitored by daily Giemsa-stained blood smears. To test the role of type I IFN cytokines, C57BL/6 mice were first infected with P. yoelii YM, and then intravenously injected with 800 U/g mouse recombinant IFN-α and IFN-β, recombinant IL-6, or recombinant IFN-γ at the indicated time points. Bovine serum albumin (BSA, 0.1%) in PBS served as a control, and parasitemias were monitored by daily Giemsa-stained blood smears. To deplete pDCs, pDC-depleting functional-grade mAb (anti-mPDCA-1 IgG, clone JF05-1C2.4.1) was purchased from Miltenyi Biotec (Auburn, Calif.), and the corresponding isotype control IgG served as control. Two intraperitoneally injections of antibody (250 μg/mouse) per mouse were administered 12 h prior and after plasmodium YM infection or indicated specifically in the figure legend. […]

Another assay has as its system P. berghei ANKA. To be noted: previous studies; cited from earlier work.
Setting [3] is: Sting-/- mice, macrophage depletion at one day post infection, vs liposome control or treatment two days before.
Setting [4] is: Mavs-/-:zDC-DTR mice, DT after 24 h of infection, vs untreated or DT four days before.
[5] abbreviates: WT mice, recombinant cytokine i.v. at 18 h post YM infection.

With `Cc1c(-c2cc(NS(=O)(=O)c3ccccc3Cl)n(C)n2)sc2ccc(Cl)cc12` [ML60218], the “IFN-β mRNA expression” value with RNA polymerase III was “markedly inhibited”.

As for `O=P(O)(O)C(Cl)(Cl)P(=O)(O)O` [clodronate], in the assay with P. yoelii YM [1] (Sting-/- mice, macrophage depletion two days before or one day after YM infection), the “serum levels of IFN-α and IFN-β” value is “did not affect”. In the assay with P. yoelii YM [2] (setting [3]), the host mortality entry was “markedly increased parasitemia and host mortality”; the parasitemia entry was “markedly increased parasitemia and host mortality”.

For diphtheria toxin [DT], the “serum IFN-α and IFN-β” value in the assay with P. yoelii YM [1] (Mavs-/-:BDCA2-DTR mice treated with DT vs Mavs-/- mice treated with DT, 24 h after infection) was “markedly reduced”. The “serum levels of IFN-α and IFN-β” value in the assay with P. yoelii YM [1] (Mavs-/-:zDC-DTR chimeric mice, DT four days before or one day post infection) is on record as “no change”. Moreover, in the assay with P. yoelii YM [2] (DT-treated Mavs-/-:BDCA2-DTR mice vs DT-treated Mavs-/- mice), the “sensitivity to P. yoelii YM infection based on parasitemia and survival” value is on record as “sensitive to P. yoelii YM infection”. In the assay on P. yoelii YM [2] (setting [4]), the parasitemia result was “increased parasitemia” and the time of death entry was “died sooner”.

“murine IFN-β: murine IFN-β of previous studies”: the “protection of mice from ANKA infection” value in the assay on P. berghei ANKA is “protect”.

B1: IFN-γ: recombinant IFN-γ injected intravenously (protein, UniProt P01580 23-155, looked up)
Interferon gamma: HGTVIESLESLNNYFNSSGIDVEEKSLFLDIWRNWQKDGDMKILQSQIISFYLRLFEVLKDNQAISNNISVIESHLITTFFSNSKAKKDAFMSIAKFEVNNPQVQRQAFNELIRVVHQLLPESSLRKRKRSRC
In the case of B1, in the assay with P. yoelii YM [2] (setting [5]), the host mortality entry is reported as “failed to do so” and the parasitemia entry is reported as “slightly increased”.

B2: IL-6: recombinant IL-6 injected intravenously (protein, UniProt P08505 25-211, looked up)
Interleukin-6: FPTSQVRRGDFTEDTTPNRPVYTTSQVGGLITHVLWEIVEMRKELCNGNSDCMNNDDALAENNLKLPEIQRNDGCYQTGYNQEICLLKISSGLLEYHSYLEYMKNNLKDNKKDKARVLQRDTETLIHIFNQEVKDLHKIVLPTPISNALLTDKLESQKEWLRTKTIQFILKSLEEFLKVTLRSTRQT
As for B2, in the assay on P. yoelii YM [2] (setting [5]), the host mortality result is reported as “failed to do so” and the parasitemia result is listed as “failed to do so”.

The values are drawn from US20190048342A1, “CROSS-REGULATION OF TYPE I INTERFERON SIGNALING PATHWAYS” (THE METHODIST HOSPITAL SYSTEM, priority 2016, published 2019).
